{"source": "patent US12186435B2", "about": "“Sol-gel/hydrogel therapeutic delivery system and methods thereof” (ALBERT EINSTEIN COLLEGE OF MEDICINE, priority 2017, dated 2025)", "key": {"[1]": {"experiment": "Evans Blue release from particles in water", "format": "physicochemical", "details": "for release from amine (APTS) doped particles: hydrogel doped with amine groups", "procedure": "FIGS. 18A-18B. Curcumin (A) and (B) Evans Blue APTS doped gels. The gels were doped with 0.3% APTS. Rate of condensation changed by mM NaOH concentration (75, 60, 30, 12) added prior to condensation step. Increasing gel times for decreasing amount of added NaOH: (2 mins, 30 mins, 15 hours, 1.5 days: 75, 60, 30, 12 mM NaOH). Curcumin release in ethanol; Evans blue release in water. Both plots from top to bottom, respectively, at left side of plots: 75 mM, 60 mM, 30 mM and 12 mM.\nAmines are incorporated by mixing hydrolyzed APTS with hydrolyzed TMOS. The resulting sol-gel monolith is loaded with the water soluble dye Evans Blue which has four negatively charged groups."}, "[2]": {"experiment": "Release of NACSNO and GSNO from particles into aqueous buffer", "format": "physicochemical", "details": "for release from original rapid gelation platform: deliverable added before condensation, aqueous buffer"}, "[3]": {"details": "in methanol"}, "[4]": {"experiment": "Release of fluorescent labeled lipids from Br1 particles, with or without 3% octyl-TMOS doping", "format": "physicochemical", "source_text": "FIG. 13. Effects of doping del with 3% octyl-TMOS on release of lipids. Plots from top to bottom, respectively: Cholesterol-BDP, Chol/3% Octyl, Palmitate-NBD, and Palm/3% Octyl.\nFluorescent labeled cholesterol and palmytic acid were used to show both loading and release. Procyanidine is a potent antioxidant that is being evaluated for use in the treatment of osteoarthritis.\nEffects of Doping Del with 3% Octyl-TMOS on Release of Lipids (FIG. 13)\n3% octyl doped gel changed cholesterol release(from 80% released down to 55% released), but had no effect on palmitate release."}, "[5]": {"experiment": "Curcumin release from particles into ethanol or methanol", "format": "physicochemical", "source_text": "FIG. 2. A comparison of release profiles form curcumin loaded nanoparticles. “Brinker” (Br) is the high-density sol-gel that took 7 days to gel and curcumin added after the gelation is complete. “9d dry” is the original formulation air dried for 9 days. Release is of suspended particles into ethanol or methanol. Plots from top to bottom, respectively: EtOH original, EtOH 9d dry, MeOH Brinker, and EtOH Brinker.\nRelease from Nanoparticles was Made Via: • the Br(Brinker) method where the curcumin is loaded into the empty Br sol-gel block (slow gelation protocol), • The original hydrogel platform where the curcumin is mixed in the initial pre-condensation mixture which gels much more rapidly than the Br sol-gels, • Curcumin loaded in the original fast gelling platform but the resulting curcumin containing sol-gel is air dried for nine days (to promote enhanced density-decreasing pore size.\nThe effect of added PEG400 on release rates of NACSNO (SNO derivative of N-acetylcysteine) and curcumin from nanoparticles generated using the new block gel protocol (Universal Drug Delivery Platform). • New protocol in which NACSNO and curcumin are infused into a gel block prepared from TMOS using the standard Brinker method for gelation. Once the gel is loaded with the deliverables, the gel is lyophilized and then milled to produce the loaded nanoparticles. • Four separate gels are prepared for each of the deliverables • One gel has no added PEG whereas the other three have varying amounts of added PEG400. The percentage of added PEG shown in the figures refers to the percentage of PEG added compared to what was added in our original protocol."}, "[6]": {"details": "gel block doped with octyl group"}}, "note": "“Also recorded” adds a separate entry of the source."}
{"smiles": "Cc1cc(-c2ccc(/N=N/c3ccc4c(S(=O)(=O)O)cc(S(=O)(=O)O)c(N)c4c3O)c(C)c2)ccc1/N=N/c1ccc2c(S(=O)(=O)O)cc(S(=O)(=O)O)c(N)c2c1O", "note": "[Evans Blue]", "values": [{"measurement": "effect of increasing addition of base prior to condensation on release", "setting": "[1]; Br sol-gels doped with APTS", "result": "increase in release"}, {"measurement": "release from amine (APTS) doped particles", "setting": "[1]", "result": "slowed by several orders or magnitude; also recorded: substantially slows release"}, {"measurement": "release from amine (APTS) doped particles", "setting": "[1]; listed as Evans blue", "result": "slows"}, {"measurement": "release from undoped particles", "setting": "[1]; without amine doping, aqueous environment", "result": "immediate and complete; also recorded: near instantaneous"}]}
{"smiles": "N[C@@H](CCC(=O)N[C@@H](CSN=O)C(=O)NCC(=O)O)C(=O)O", "note": "[GSNO, S-nitrosothiol-GSH]", "values": [{"measurement": "release from original rapid gelation platform", "setting": "[2]", "result": "rapid release"}, {"measurement": "stability in original rapid gelation platform", "setting": "[2]; prepared in original rapid gelation platform", "result": "unstable"}]}
{"smiles": "CC(=O)N[C@@H](CSN=O)C(=O)O", "note": "[NACSNO, S-nitrosoN-acetylcysteine]", "values": [{"measurement": "release from original rapid gelation platform", "setting": "[2]", "result": "almost immediate release"}, {"measurement": "effect of octyl group doping on release", "setting": "[2]; [6]", "result": "slows release"}]}
{"smiles": "COc1ccc2cc([C@H](C)C(=O)O)ccc2c1", "note": "[Naproxen]", "values": [{"measurement": "release from new protocol nanoparticles", "setting": "[3]", "result": "slow release"}]}
{"smiles": "CC(C)CCC[C@@H](C)[C@H]1CC[C@H]2[C@@H]3CC=C4C[C@@H](O)CC[C@]4(C)[C@H]3CC[C@]12C", "note": "[cholesterol]", "values": [{"measurement": "cholesterol release, released", "setting": "[4]; 3% octyl doped gel", "result": 55, "unit": "%"}, {"measurement": "cholesterol release, released", "setting": "[4]; gel without octyl doping (Br1)", "result": 80, "unit": "%"}]}
{"smiles": "COc1cc(/C=C/C(=O)CC(=O)/C=C/c2ccc(O)c(OC)c2)ccc1O", "note": "[curcumin, Curcumin]", "values": [{"measurement": "effect of increasing addition of base prior to condensation on release", "setting": "[5]; Br sol-gels doped with APTS", "result": "increase in release"}, {"measurement": "effect of octyl group doping on release", "setting": "[5]; [6]", "result": "slows release"}, {"measurement": "effect of APTS on release", "setting": "[5]; slow gel, >1 day to form", "result": "increased"}, {"measurement": "release compared to the original platform and its air dried version", "setting": "[5]; slow gelling Br protocol, curcumin loaded after gelation", "result": "dramatic slow down in release"}, {"measurement": "effect of increasing pH in condensation step on release", "setting": "[5]; sol-gel doped with 25% PEG400, release in ethanol", "result": "increases release"}]}
{"smiles": "CCCCCCCCCCCCCCCC(=O)O", "note": "[palmitate]", "values": [{"measurement": "effect of 3% octyl doping on release", "setting": "[4]; 3% octyl doped gel vs undoped", "result": "no effect"}]}
